Experimental data from the NIST ThermoML archive (doi:10.1016/j.tca.2015.02.020).

Assay: molar heat capacity at constant pressure; xn = mol fraction of the nth substance listed
Settings: 101 kPa, Liquid, Small sample (50 mg) DSC

CC(O)CN (stereo unspecified) [1-amino-2-propanol] + O
Settings | molar heat capacity at constant pressure [J/K/mol]
207.73 K, x1 = 0.68 | 127.89
209.98 K, x1 = 0.19 | 80.53
209.98 K, x1 = 0.26 | 88.72
210.13 K, x1 = 0.68 | 136.98
210.14 K, x1 = 0.16 | 76.29
212.31 K, x1 = 0.16 | 80.64
212.31 K, x1 = 0.19 | 81.68
212.31 K, x1 = 0.26 | 87.41
212.33 K, x1 = 0.15 | 76.55
212.46 K, x1 = 0.68 | 129.03
213.3 K, x1 = 0.19 | 80.82
213.3 K, x1 = 0.26 | 89.38
213.45 K, x1 = 0.16 | 76.84
213.45 K, x1 = 0.68 | 137.55
217.04 K, x1 = 0.19 | 82.55
217.04 K, x1 = 0.26 | 88.06
217.05 K, x1 = 0.16 | 81.72
217.07 K, x1 = 0.15 | 77.88
217.19 K, x1 = 0.68 | 129.59
219.93 K, x1 = 0.19 | 82.26
219.93 K, x1 = 0.26 | 90.36
220.08 K, x1 = 0.68 | 136.98
220.09 K, x1 = 0.16 | 76.56
221.78 K, x1 = 0.19 | 83.7
221.79 K, x1 = 0.16 | 83.08
221.79 K, x1 = 0.26 | 89.71
221.81 K, x1 = 0.15 | 79.21
221.94 K, x1 = 0.68 | 130.73
223.25 K, x1 = 0.19 | 82.84
223.25 K, x1 = 0.26 | 91.35
226.53 K, x1 = 0.16 | 84.44
226.53 K, x1 = 0.19 | 84.86
226.53 K, x1 = 0.26 | 91.02
226.55 K, x1 = 0.15 | 80.8
226.68 K, x1 = 0.68 | 132.44
229.89 K, x1 = 0.26 | 92.99
231.26 K, x1 = 0.19 | 86.01
231.26 K, x1 = 0.26 | 92.34
231.27 K, x1 = 0.16 | 85.52
231.3 K, x1 = 0.15 | 82.4
231.42 K, x1 = 0.68 | 133.57
233.2 K, x1 = 0.26 | 94.31
236.01 K, x1 = 0.16 | 86.88
236.01 K, x1 = 0.19 | 87.46
236.01 K, x1 = 0.26 | 93.65
236.04 K, x1 = 0.15 | 83.99
236.16 K, x1 = 0.68 | 135.28
239.85 K, x1 = 0.26 | 96.28
240.75 K, x1 = 0.16 | 88.51
240.75 K, x1 = 0.19 | 88.61
240.75 K, x1 = 0.26 | 94.96
240.78 K, x1 = 0.15 | 85.59
240.9 K, x1 = 0.68 | 136.98
243.17 K, x1 = 0.26 | 97.59
245.5 K, x1 = 0.16 | 89.6
245.5 K, x1 = 0.19 | 90.05
245.5 K, x1 = 0.26 | 96.61
245.53 K, x1 = 0.15 | 87.18
245.64 K, x1 = 0.68 | 138.69
249.82 K, x1 = 0.26 | 99.89
250.25 K, x1 = 0.16 | 90.95
250.25 K, x1 = 0.19 | 91.5
250.25 K, x1 = 0.26 | 97.92
250.28 K, x1 = 0.15 | 88.51
250.4 K, x1 = 0.68 | 140.39
253.15 K, x1 = 0.26 | 101.21
255 K, x1 = 0.16 | 91.77
255 K, x1 = 0.19 | 92.36
255 K, x1 = 0.26 | 99.24
255.03 K, x1 = 0.15 | 89.84
255.14 K, x1 = 0.68 | 142.67
259.75 K, x1 = 0.16 | 92.85
259.75 K, x1 = 0.19 | 93.81
259.75 K, x1 = 0.26 | 100.55
259.78 K, x1 = 0.15 | 90.9
259.8 K, x1 = 0.19 | 95.54
259.8 K, x1 = 0.26 | 103.51
259.89 K, x1 = 0.68 | 144.37
259.95 K, x1 = 0.16 | 93.4
259.95 K, x1 = 0.68 | 154.04
259.96 K, x1 = 0.15 | 93.83
263.13 K, x1 = 0.19 | 96.69
263.13 K, x1 = 0.26 | 104.82
263.27 K, x1 = 0.68 | 155.17
263.28 K, x1 = 0.16 | 94.48
263.29 K, x1 = 0.15 | 94.62
264.5 K, x1 = 0.16 | 93.94
264.5 K, x1 = 0.19 | 94.96
264.5 K, x1 = 0.26 | 101.87
264.53 K, x1 = 0.15 | 92.23
264.64 K, x1 = 0.68 | 146.65
269.26 K, x1 = 0.16 | 94.48
269.26 K, x1 = 0.19 | 95.83
269.26 K, x1 = 0.26 | 103.18
269.29 K, x1 = 0.15 | 93.29
269.4 K, x1 = 0.68 | 148.35
269.78 K, x1 = 0.19 | 98.71
269.79 K, x1 = 0.26 | 107.45
269.93 K, x1 = 0.68 | 158.01
269.94 K, x1 = 0.16 | 96.66
269.95 K, x1 = 0.15 | 96.75
273.12 K, x1 = 0.19 | 99.87
273.13 K, x1 = 0.26 | 108.44
273.27 K, x1 = 0.68 | 159.15
273.29 K, x1 = 0.15 | 97.28
273.29 K, x1 = 0.16 | 97.74
274.05 K, x1 = 0.16 | 95.3
274.05 K, x1 = 0.19 | 96.98
274.05 K, x1 = 0.26 | 104.49
274.09 K, x1 = 0.15 | 93.83
274.2 K, x1 = 0.68 | 150.62
278.96 K, x1 = 0.26 | 105.81
278.97 K, x1 = 0.16 | 96.11
278.97 K, x1 = 0.19 | 98.13
279 K, x1 = 0.15 | 94.89
279.12 K, x1 = 0.68 | 152.9
280 K, x1 = 0.19 | 101.02
280.01 K, x1 = 0.26 | 109.42
280.15 K, x1 = 0.68 | 160.29
280.17 K, x1 = 0.15 | 97.81
280.17 K, x1 = 0.16 | 98.83
283.44 K, x1 = 0.19 | 101.31
283.44 K, x1 = 0.26 | 110.08
283.59 K, x1 = 0.68 | 160.86
283.61 K, x1 = 0.16 | 99.37
283.62 K, x1 = 0.15 | 98.08
283.88 K, x1 = 0.16 | 96.38
283.88 K, x1 = 0.19 | 97.85
283.88 K, x1 = 0.26 | 106.79
283.92 K, x1 = 0.15 | 95.42
284.02 K, x1 = 0.68 | 155.17
